# According to patent publication US12605351B2, “Method for producing a composition comprising a 3-O-p-coumaroyl ester of tormentic acid from a plant cell culture, applications thereof as antiparasitic agent for the treatment of trypanosomiasis” (LUXEMBOURG INSTITUTE OF SCIENCE AND TECHNOLOGY, priority 2019, dated 2026):
# Like-named read-outs stand apart in the source and are kept apart here.
# Assays:
# [1] = tested on: Trypanosoma brucei brucei bloodstream forms (strain 427); test: In vitro antitrypanosomal activity on Tbb BSF; assay type: cell-based; conditions: for SI (Selectivity Index): cytotoxicity in WI38 compared to Tbb; for antitrypanosomal activity compared with parent ursolic/oleanolic acid: in words
# Method: Antiparasitic activities were evaluated in vitro on Trypanosoma brucei brucei bloodstream forms (strain 427) (Tbb BSF). Tbb BSF were cultured in vitro at 37° C. with 5% CO2 in HMI9 medium containing 10% heat-inactivated fetal bovine serum, […] ([…]) and L-cysteine ([…]).
# (§1) In vitro tests were performed as previously described by Hoet S. et al. (Planta Med., 2004, 70, 407-413, doi:10.1055/s-2004-818967). Suramine (a commercial anti-trypanosomal drug) and camptothecin were used as positive controls. Stock solutions of compounds to be tested were prepared at a concentration of 10 mg/mL in DMSO. The solutions were further diluted in medium (described in 1.1) to give 0.1 mg/mL stock solutions. Extracts and compounds were tested in eight serial three-fold dilutions (final concentration range: 50-0.02 mg/L) in 96-well microliter plates. All tests were performed at least in duplicate.
# [2] = tested on: Human normal fibroblast cell line (WI-38); test: cells; assay type: cell-based; conditions: for cytotoxicity compared with parent oleanolic acid: in words
# Method: The cytotoxicity of tested compounds was evaluated in parallel on a Human normal fibroblast cell line (WI-38) cultivated in a humidified atmosphere with 5% CO2 at 37° C. Human normal fibroblast cell line (WI-38) was cultivated in DMEM medium (Life Technologies) containing 4 mM L-glutamine, 1 mM sodium pyruvate supplemented with 10% fetal bovine serum (Sigma) and penicillin-streptomycin (100 UI/mL).
# as §1, with “Suramine” for “In vitro tests were performed as previously described by Hoet S. et al. (Planta Med., 2004, 70, 407-413, doi:10.1055/s-2004-818967). Suramine”
# [3] = In vivo acute toxicity test (highest tolerated dose); parameters: species or system NMRI mice; conditions: mice; for acute toxicity: intraperitoneally every 2 hours, 10-15-25-50 mg/kg, monitored 48 h
# Excerpt: (§2) NMRI mice (6-8 weeks of age) obtained from Envigo Laboratories (The Netherlands) were used. All in vivo experiments performed were approved by the Ethical Committee for animals use at the Health Sciences Sector of the Catholic University of Louvain (2017/UCL/MD/017).
# The assessment of the highest tolerated dose was based on a DNDi protocol by Loset J.-R. et al. (V. Drug Screening for Kinetoplastids Diseases. A Training Manual for Screening in Neglected Diseases-DNDi, 2009) and adapted by Beaufay C. et al. (Malar J., 2017, 16, doi:10.1186/s12936-017-2054-y). Briefly, 3-O-cis/trans-p-coumaroyltormentic acid isolated from fractions F-F9 obtained from a callus of Malus domestica Cox cultivar of example 1 above was given intraperitoneally every 2 hours to 2 mice using increasing doses: 10-15-25-50 mg/kg from stock solutions of 10 mg/mL. Mice were controlled for any health problem symptoms or behavioral changes and monitored for weight and hematocrit after each injection and every day during 48 h after administration. Main organs (heart, liver, spleen, lung and kidney) of treated mice were observed and weighed wet during autopsy. Control group received the vehicle, distilled water with 10% of tween 80-ethanol (7:3). The total injected dose was finally recorded and will ensure the non-toxicity of in vivo anti-trypanosomal test.
# [4] = tested on: Trypanosoma brucei brucei; test: In vivo anti-trypanosomal activity in infected mice; parameters: species or system NMRI mice; conditions: for survival of infected mice in comparison to the untreated group: 50 mg/kg/d i.p. day 3-7 post-infection, followed to day 19
# Excerpt: as §2
# Mice were randomly divided into 6 mice per group for 3-O-cis/trans-p-coumaroyltormentic acid (mixture of cis and trans) and ursolic acid, 4 for positive control (Suramine) and 7 for the negative control, and were infested intraperitoneally with 10^4 Trypanosoma brucei brucei. All compounds were solubilized in the vehicle (water-tween 80-ethanol) and administered intraperitoneally. 3-O-cis/trans-p-coumaroyltormentic acid or ursolic acid (UA) were administered at 50 mg/kg at day 3 after infection with the parasite and then every day until day 7 post-infection. Suramine (0.5 mg/kg) was administered while vehicle was used as a negative control. From day 3 post infection, a drop of blood collected each day from mouse-tail was used to count parasitemia.
# [5] = Tbb bloodstream forms strain 427, Table 3
# [6] = Tbb bloodstream forms strain 427, Table 3, read-out: Tbb (IC50 μM)
# [7] = cytotoxicity, WI-38 human fibroblasts, Table 3
# [8] = cytotoxicity, WI-38 human fibroblasts, Table 3, read-out: WI38 (IC50 μM)
# [9] = listed as 3-O-p-coumaroyl ester of tormentic acid
# [10] = cytotoxicity, WI-38 human fibroblasts, Table 3, read-out: WI38 (IC50 μg/mL)
# [11] = Trypanosoma brucei, Tbb bloodstream forms strain 427, Table 3, read-out: Tbb (IC50 μM)
# [12] = Trypanosoma brucei, Tbb bloodstream forms strain 427, Table 3, read-out: Tbb (IC50 μg/mL)
# [13] = Table 4, same methods as example 3, read-out: Antitrypanosomal (Tbb) IC50 (μM, Mean ± Sd)
# [14] = Table 4, same methods as example 3, read-out: Cytotoxicity (WI38) IC50 (μM, Mean ± Sd)
compound,measurement,setting,value
"3β-trans/cis-p-coumaroyl-2α,19α-dihydroxy-urs-12-en-28-oic acid [3-O-cis/trans-p-coumaroyltormentic acid]",Tbb (IC50 μg/mL),[1]; [5],0.48 ± 0.36 µg/mL
same,IC50,[1]; [6],0.75 ± 0.57 µM
same,"anti-trypanosomal activity, times higher than that of tormentic acid","[1]; in vitro, versus tormentic acid",10 times
same,WI38 (IC50 μg/mL),[2]; [7],28.43 ± 0.79 µg/mL
same,IC50,[2]; [8],44.8 ± 1.25 µM
same,total cumulative highest tolerated dose,"[3]; intraperitoneal, repeated injections",100 mg/kg
same,acute toxicity,[3],no acute toxic symptom
same,acute toxicity,[3]; [9],no acute toxicity
same,survival of infected mice in comparison to the untreated group,[4]; [9],significant increase
same,survival of infected mice in comparison to the untreated group,[4]; listed as esters,significantly improved
same,parasitemia,"[4]; day 4 post-infection, 50 mg/kg/day intraperitoneally, 10^4 Tbb/mouse",significant decrease
same,survival increase,"[4]; day 12 post-infection, 50 mg/kg i.p. day 3-7",33.3%
CC[C@@]1(O)C(=O)OCc2c1cc1n(c2=O)Cc2cc3ccccc3nc2-1 [Camptothecin],IC50,[2]; [8],0.12 ± 0.03 µM
same,IC50,[2]; [10],0.04 ± 0.01 µg/mL
C[C@H]1[C@H](C)CC[C@]2(C(=O)O)CC[C@]3(C)C(=CC[C@@H]4[C@@]5(C)C[C@@H](O)[C@H](O)C(C)(C)[C@@H]5CC[C@]43C)[C@H]12 [Corosolic Acid],IC50,[1]; [11],7.3 ± 0.59 µM
same,IC50,[1]; [12],3.45 ± 0.23 µg/mL
same,SI (Selectivity Index),[1],2.7
same,IC50,[2]; [8],19.8 ± 5.22 µM
same,IC50,[2]; [10],9.34 ± 2.47 µg/mL
"C[C@H]1[C@H](C)CC[C@]2(C(=O)O)CC[C@]3(C)C(=CC[C@@H]4[C@@]5(C)CC[C@H](OC(=O)CCc6ccccc6)C(C)(C)C5CC[C@]43C)[C@H]12 (some centres unmarked) [Derivative (II-1), 3-O-hydrocinnamic ursolic acid]",IC50,[1]; [13],2.22 ± 0.66 µM
same,IC50,[2],142 ± 3.45 µM
"C[C@H]1[C@H](C)CC[C@]2(C(=O)O)CC[C@]3(C)C(=CC[C@@H]4[C@@]5(C)CC[C@H](OC(=O)/C=C/c6ccccc6)C(C)(C)C5CC[C@]43C)[C@H]12 (some centres unmarked) [Derivative (II-2), 3-O-cinnamic ursolic acid]",IC50,[1]; [13],68.2 ± 2.15 µM
"C[C@H]1[C@H](C)CC[C@]2(C(=O)O)CC[C@]3(C)C(=CC[C@@H]4[C@@]5(C)CC[C@H](OC(=O)CCc6ccc(F)cc6)C(C)(C)C5CC[C@]43C)[C@H]12 (some centres unmarked) [Derivative (II-3), 3-O-parafluorophenylpropionic ursolic acid]",IC50,[1]; [13],2.45 ± 0.3 µM
same,IC50,[2],> 165 µM
"C[C@H]1[C@H](C)CC[C@]2(C(=O)O)CC[C@]3(C)C(=CC[C@@H]4[C@@]5(C)CC[C@H](OC(=O)CCc6cccc(F)c6)C(C)(C)C5CC[C@]43C)[C@H]12 (some centres unmarked) [Derivative (II-4), 3-O-metafluorophenylpropionic ursolic acid]",IC50,[1]; [13],2.67 ± 0.83 µM
same,IC50,[2],> 165 µM
"C[C@H]1[C@H](C)CC[C@]2(C(=O)O)CC[C@]3(C)C(=CC[C@@H]4[C@@]5(C)CC[C@H](OC(=O)CCc6ccccc6F)C(C)(C)C5CC[C@]43C)[C@H]12 (some centres unmarked) [Derivative (II-5), 3-O-orthofluorophenylpropionic ursolic acid]",IC50,[1]; [13],1.66 ± 0.38 µM
same,IC50,[2],> 132 µM
"CC1(C)CC[C@]2(C(=O)O)CC[C@]3(C)C(=CC[C@@H]4[C@@]5(C)CC[C@H](OC(=O)CCc6ccccc6)C(C)(C)C5CC[C@]43C)[C@@H]2C1 (some centres unmarked) [Derivative (II-6), 3-O-hydrocinnamic oleanolic acid]",IC50,[1]; [13],2.59 ± 0.87 µM
same,antitrypanosomal activity compared with parent ursolic/oleanolic acid,[1],significantly increased activity
same,IC50,[2]; [14],23.5 ± 6.56 µM
same,cytotoxicity compared with parent oleanolic acid,[2],significantly increased
"CC1(C)CC[C@]2(C(=O)O)CC[C@]3(C)C(=CC[C@@H]4[C@@]5(C)CC[C@H](OC(=O)/C=C/c6ccccc6)C(C)(C)C5CC[C@]43C)[C@@H]2C1 (some centres unmarked) [Derivative (II-7), 3-O-cinnamic oleanolic acid]",IC50,[1]; [13],6.31 ± 0.96 µM
same,IC50,[2]; [14],22.3 ± 1.88 µM
"CC1(C)CC[C@]2(C(=O)O)CC[C@]3(C)C(=CC[C@@H]4[C@@]5(C)CC[C@H](OC(=O)CCc6ccc(F)cc6)C(C)(C)C5CC[C@]43C)[C@@H]2C1 (some centres unmarked) [Derivative (II-8), 3-O-parafluorophenylpropionic oleanolic acid]",IC50,[1]; [13],2.88 ± 1.11 µM
same,antitrypanosomal activity compared with parent ursolic/oleanolic acid,[1],significantly increased activity
same,IC50,[2]; [14],16.3 ± 3.26 µM
same,cytotoxicity compared with parent oleanolic acid,[2],significantly increased
"CC1(C)CC[C@]2(C(=O)O)CC[C@]3(C)C(=CC[C@@H]4[C@@]5(C)CC[C@H](OC(=O)CCc6cccc(F)c6)C(C)(C)C5CC[C@]43C)[C@@H]2C1 (some centres unmarked) [Derivative (II-9), 3-O-metafluorophenylpropionic oleanolic acid]",IC50,[1]; [13],1.72 ± 0.07 µM
same,antitrypanosomal activity compared with parent ursolic/oleanolic acid,[1],significantly increased activity
same,IC50,[2]; [14],20.7 ± 2.25 µM
same,cytotoxicity compared with parent oleanolic acid,[2],significantly increased
"CC1(C)CC[C@]2(C(=O)O)CC[C@]3(C)C(=CC[C@@H]4[C@@]5(C)CC[C@H](OC(=O)CCc6ccccc6F)C(C)(C)C5CC[C@]43C)[C@@H]2C1 (some centres unmarked) [Derivative (II-10), 3-O-orthofluorophenylpropionic oleanolic acid]",IC50,[1]; [13],4.63 ± 0.28 µM
same,IC50,[2]; [14],18.6 ± 4.47 µM
CC1(C)CC[C@]2(C(=O)O)CC[C@]3(C)C(=CC[C@@H]4[C@@]5(C)C[C@@H](O)[C@H](O)C(C)(C)[C@@H]5CC[C@]43C)[C@@H]2C1 [Maslinic acid],IC50,"[1]; Trypanosoma brucei, read-out: Tbb (IC50 μM)",9.41 ± 1.35 µM
same,IC50,"[1]; Trypanosoma brucei, read-out: Tbb (IC50 μg/mL)",4.45 ± 0.64 µg/mL
same,SI (Selectivity Index),[1],4.6
same,IC50,"[2]; Homo sapiens, WI-38, read-out: WI38 (IC50 μM)",44.1 ± 8.4 µM
same,IC50,"[2]; Homo sapiens, WI-38, read-out: WI38 (IC50 μg/mL)",20.9 ± 3.97 µg/mL
CC1(C)CC[C@]2(C(=O)O)CC[C@]3(C)C(=CC[C@@H]4[C@@]5(C)CC[C@H](O)C(C)(C)[C@@H]5CC[C@]43C)[C@@H]2C1 [Oleanolic acid],IC50,[1]; [11],5.83 ± 0.7 µM
same,IC50,[1]; [12],2.66 ± 0.32 µg/mL
same,SI (Selectivity Index),[1],10.9
same,IC50,[2]; [8],63.3 ± 0.74 µM
same,IC50,[2]; [10],28.9 ± 0.34 µg/mL
Cc1ccc(C(=O)Nc2ccc(S(=O)(=O)O)c3cc(S(=O)(=O)O)cc(S(=O)(=O)O)c23)cc1NC(=O)c1cccc(NC(=O)Nc2cccc(C(=O)Nc3cc(C(=O)Nc4ccc(S(=O)(=O)O)c5cc(S(=O)(=O)O)cc(S(=O)(=O)O)c45)ccc3C)c2)c1 [Suramine],IC50,[1]; [11],0.038 ± 0.008 µM
same,IC50,[1]; [12],0.05 ± 0.01 µg/mL
same,survival till the end of the experiment,[4]; end of experiment day 19 post-infection,survive during all the experimental period
C[C@@H]1CC[C@]2(C(=O)O)CC[C@]3(C)C(=CC[C@@H]4[C@@]5(C)C[C@@H](O)[C@H](O)C(C)(C)[C@@H]5CC[C@]43C)[C@@H]2[C@]1(C)O [Tormentic acid],Tbb (IC50 μg/mL),[1]; [5],7.49 ± 0.33 µg/mL
same,IC50,[1]; [6],15.3 ± 0.67 µM
same,WI38 (IC50 μg/mL),[2]; [7],26.48 ± 0.33 µg/mL
same,IC50,[2]; [8],54.2 ± 0.67 µM
Annurcoic acid,Tbb (IC50 μg/mL),[1]; [5],27.39 ± 2.24 µg/mL
same,IC50,[1]; [6],56.3 ± 4.6 µM
same,WI38 (IC50 μg/mL),[2]; [7],70.17 ± 6.82 µg/mL
same,IC50,[2]; [8],144 ± 14 µM
